According to ChEMBL document CHEMBL4118099, “Targeting Transcriptional Enhanced Associate Domains (TEADs)” (J Med Chem, 2018):

Assays:
[1] = target: T1, Transcriptional enhancer factor TEF-1 (Homo sapiens, UniProt P28347); test: Binding affinity to human GST-tagged TEAD1 (194 to 411) expressed in Escherichia coli BL21(DE3) by SPR assay
[2] = target: T1, Transcriptional enhancer factor TEF-1; test: Inhibition of human His-tagged YAP (50 to 171 residues) interaction with human GST-tagged TEAD1 (194 to 411) expressed in Escherichia coli BL21(DE3) incubated for 30 mins measured by SPR assay
[3] = target: Transcriptional enhancer factor TEF-3 (Homo sapiens, UniProt Q15561); test: Binding affinity to human His-tagged TEAD4 YBD (217 to 434 residues) expressed in Escherichia coli BL21(DE3) after 30 mins by ITC assay
Chain of Transcriptional enhancer factor TEF-3 (Q15561 whole entry, the tested form may be a part): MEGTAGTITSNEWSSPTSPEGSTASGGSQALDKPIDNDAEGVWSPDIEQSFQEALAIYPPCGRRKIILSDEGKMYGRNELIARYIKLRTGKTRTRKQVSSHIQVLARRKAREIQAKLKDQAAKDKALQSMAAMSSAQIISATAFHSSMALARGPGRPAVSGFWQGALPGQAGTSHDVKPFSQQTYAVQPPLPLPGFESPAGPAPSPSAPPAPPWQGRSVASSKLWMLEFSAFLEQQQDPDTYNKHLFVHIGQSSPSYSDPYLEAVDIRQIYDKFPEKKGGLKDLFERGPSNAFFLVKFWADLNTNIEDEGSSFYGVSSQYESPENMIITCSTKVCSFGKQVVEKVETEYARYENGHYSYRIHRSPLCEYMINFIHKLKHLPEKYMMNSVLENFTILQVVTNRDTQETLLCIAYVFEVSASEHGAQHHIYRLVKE

T1 sequence (P28347 whole entry, the tested form may be a part): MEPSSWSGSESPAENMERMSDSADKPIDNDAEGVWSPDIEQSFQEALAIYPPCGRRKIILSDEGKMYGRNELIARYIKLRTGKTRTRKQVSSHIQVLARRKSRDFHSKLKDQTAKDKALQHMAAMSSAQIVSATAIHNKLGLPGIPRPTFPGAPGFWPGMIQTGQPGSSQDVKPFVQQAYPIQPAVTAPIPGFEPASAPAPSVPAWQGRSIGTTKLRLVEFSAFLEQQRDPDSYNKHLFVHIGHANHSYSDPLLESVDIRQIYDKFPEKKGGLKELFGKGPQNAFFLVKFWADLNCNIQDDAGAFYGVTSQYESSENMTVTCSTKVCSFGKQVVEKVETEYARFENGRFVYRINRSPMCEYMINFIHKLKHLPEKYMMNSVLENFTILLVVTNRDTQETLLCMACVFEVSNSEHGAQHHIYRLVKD

| SMILES | Kd [1] | IC50 [2] | Kd [3] |
| --- | --- | --- | --- |
| CCCC[C@@H]1NC(=O)[C@H](CCCCN)NC(=O)[C@H](CCCNC(=N)N)NC(=O)[C@H](CC(C)C)NC(=O)[C@@H](NC(=O)[C@H](Cc2cccc(Cl)c2)N[C@H](C)[C@@H]2CCCN2C(=O)[C@@H](NC(C)=O)C(C)C)CCSSC[C@@H](C(=O)N[C@@H](CCCCN)C(=O)N2CCC[C@H]2C(=O)N2CCC[C@H]2C(=O)N[C@@H](CCC(=O)O)C(N)=O)NC(=O)[C@@H](Cc2ccccc2)NC(=O)[C@H](CO)NC(=O)[C@H](C)NC(=O)[C@@H]2CCCN2C1=O | 15 nM | 25 nM |  |
| O=C(O)c1cccnc1Nc1cccc(C(F)(F)F)c1 [NIFLUMIC ACID] |  |  | 28000 nM |
